Source: publication PMC4632246 (Analytical biochemistry, 2012)

What was measured:
Format in all cases: binding
[1] = biological target: Hsp90α-NT (middle domain of Hsp90α) (Homo sapiens, UniProt P07900); assay: Competition studies of eNOS and CEP on Hsp90α-NT column; conditions: eNOS added to the mobile phase
[2] = biological target: Hsp90α-NT (human Hsp90α immobilized via the N-terminal) (Homo sapiens, UniProt P07900); assay: Frontal chromatography on Hsp90α-NT column; conditions: for Bmax: Hsp90α-NT column, frontal chromatography, number of active binding sites, ±SE
[3] = biological target: Hsp90α-CT (human Hsp90α immobilized via the C-terminal) (Homo sapiens, UniProt P07900); assay: Frontal chromatography on Hsp90α-CT column; conditions: for Bmax: Hsp90α-CT column, frontal chromatography, number of active binding sites, ±SE

Compound: COc1ccc2cc1Oc1ccc(cc1)C[C@H]1c3c(cc4c(c3Oc3cc5c(cc3OC)CCN(C)[C@@H]5C2)OCO4)CCN1C [Cepharanthine, cepharanthine]
- retention factors of CEP with an increase in eNOS concentrations [1]: decreased
- Kd [2]: 5.3 ± 1.3 µM
- Bmax [2]: 19.8 ± 3.1 nmol
- Kd [3]: 6.3 ± 1.7 µM
- Bmax [3]: 56.9 ± 7.2 nmol

Compound: COc1cc2c3c(c1OC)Oc1ccc(cc1)C[C@@H]1c4c(cc(OC)c(OC)c4Oc4ccc(cc4)C[C@H]3N(C)CC2)CCN1C [Cycleanine, cycleanine]
- Kd [2]: 159 ± 23.2 µM
- Bmax [2]: 37.3 ± 2.5 nmol
- Kd [3]: 143 ± 36.6 µM
- Bmax [3]: 578 ± 110 nmol

Compound: berbamine
- Bmax [2]: 36.5 ± 3.3 nmol
- Bmax [3]: 89.7 ± 17.1 nmol

Compound: isotetrandrine
- Bmax [2]: 54.7 ± 6.3 nmol
- Bmax [3]: 250 ± 29.7 nmol
